Data from paper PMC11956013, “Structure–Activity Relationships and Evaluation of 2-(Heteroaryl-cycloalkyl)-1H-indoles as Tauopathy Positron Emission Tomography Radiotracers” (Journal of Medicinal Chemistry, 2025).
Values joined by “and” are separate entries in the source; they are usually repeats but may differ in a detail not shown here. Equal values may be shown once. Read-outs that look alike come from different tables or passages of the source.

How the values were obtained:
JNK1 (h) = JNK1 (h) (Homo sapiens, UniProt P45983); settings: Enzymatic activity; reference compound
Chain of JNK1 (h) (P45983 whole entry): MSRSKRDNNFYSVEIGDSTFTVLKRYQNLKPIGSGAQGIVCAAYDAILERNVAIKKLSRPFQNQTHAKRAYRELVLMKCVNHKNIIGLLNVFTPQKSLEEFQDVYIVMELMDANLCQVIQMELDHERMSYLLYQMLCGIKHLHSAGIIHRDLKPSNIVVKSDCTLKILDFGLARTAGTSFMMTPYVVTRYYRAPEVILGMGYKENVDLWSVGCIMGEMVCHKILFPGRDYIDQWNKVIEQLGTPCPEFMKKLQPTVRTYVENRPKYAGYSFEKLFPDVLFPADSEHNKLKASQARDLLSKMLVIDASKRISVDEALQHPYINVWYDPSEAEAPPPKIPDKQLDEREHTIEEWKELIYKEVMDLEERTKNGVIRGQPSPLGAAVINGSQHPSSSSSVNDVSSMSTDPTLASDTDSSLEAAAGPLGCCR

ATPase (Na+/K+) = experiment: Eurofins panel: ATPase (Na+/K+) enzymatic activity; assay type: biochemical; settings: reference compound, read-out: Concurrent IC50, Enzymatic activity
5-HT1A (h) = 5-HT1A (h) (Homo sapiens, UniProt P08908); settings: reference compound; 5-HT1A (h)
Chain of 5-HT1A (h) (P08908 whole entry): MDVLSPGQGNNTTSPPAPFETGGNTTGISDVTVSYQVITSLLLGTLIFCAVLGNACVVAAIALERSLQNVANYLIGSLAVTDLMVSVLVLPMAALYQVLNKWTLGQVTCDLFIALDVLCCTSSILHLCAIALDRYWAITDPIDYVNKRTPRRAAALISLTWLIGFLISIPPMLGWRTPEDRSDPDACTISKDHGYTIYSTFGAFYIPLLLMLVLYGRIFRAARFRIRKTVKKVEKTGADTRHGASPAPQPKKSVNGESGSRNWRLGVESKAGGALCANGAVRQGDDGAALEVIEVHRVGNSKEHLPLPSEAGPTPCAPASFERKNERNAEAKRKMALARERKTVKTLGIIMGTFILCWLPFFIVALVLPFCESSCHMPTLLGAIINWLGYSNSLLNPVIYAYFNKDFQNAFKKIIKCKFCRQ

dopamine transporter (h) = dopamine transporter (h) (Homo sapiens, UniProt Q01959); experiment: dopamine transporter (h) (antagonist radioligand), Eurofins assay 52; settings: Specific binding; reference compound
Chain of dopamine transporter (h) (Q01959 whole entry): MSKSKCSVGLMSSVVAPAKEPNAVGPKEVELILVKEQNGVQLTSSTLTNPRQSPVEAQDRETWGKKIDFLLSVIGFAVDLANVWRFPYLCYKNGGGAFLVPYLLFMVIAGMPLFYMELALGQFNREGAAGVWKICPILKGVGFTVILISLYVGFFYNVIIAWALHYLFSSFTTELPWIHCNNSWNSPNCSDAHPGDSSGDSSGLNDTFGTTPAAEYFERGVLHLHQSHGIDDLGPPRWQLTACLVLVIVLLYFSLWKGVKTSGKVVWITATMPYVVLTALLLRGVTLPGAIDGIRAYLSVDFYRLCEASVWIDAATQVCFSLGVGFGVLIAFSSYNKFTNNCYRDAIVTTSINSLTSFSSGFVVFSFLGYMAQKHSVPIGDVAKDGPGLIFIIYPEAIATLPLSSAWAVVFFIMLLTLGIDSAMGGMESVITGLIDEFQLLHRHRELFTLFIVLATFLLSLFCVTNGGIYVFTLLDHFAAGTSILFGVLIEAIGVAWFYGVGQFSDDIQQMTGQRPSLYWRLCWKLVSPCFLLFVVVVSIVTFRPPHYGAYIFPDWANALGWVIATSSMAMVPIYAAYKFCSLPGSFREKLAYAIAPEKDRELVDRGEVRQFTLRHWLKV

[1] = molecular target: T1, aggregated tau (4R-tau) in CBD brain tissue homogenates (Homo sapiens, UniProt P10636); design: from tissue; host or cells: post-mortem human CBD brain, middle frontal gyrus homogenate; method as in earlier work; settings: CBD brain tissue homogenate; radioligand [^3H]3; read-out: Ki versus [^3H]3, CBD tissue; cited from earlier work
T1 sequence (P10636 1-441 isoform P10636-8): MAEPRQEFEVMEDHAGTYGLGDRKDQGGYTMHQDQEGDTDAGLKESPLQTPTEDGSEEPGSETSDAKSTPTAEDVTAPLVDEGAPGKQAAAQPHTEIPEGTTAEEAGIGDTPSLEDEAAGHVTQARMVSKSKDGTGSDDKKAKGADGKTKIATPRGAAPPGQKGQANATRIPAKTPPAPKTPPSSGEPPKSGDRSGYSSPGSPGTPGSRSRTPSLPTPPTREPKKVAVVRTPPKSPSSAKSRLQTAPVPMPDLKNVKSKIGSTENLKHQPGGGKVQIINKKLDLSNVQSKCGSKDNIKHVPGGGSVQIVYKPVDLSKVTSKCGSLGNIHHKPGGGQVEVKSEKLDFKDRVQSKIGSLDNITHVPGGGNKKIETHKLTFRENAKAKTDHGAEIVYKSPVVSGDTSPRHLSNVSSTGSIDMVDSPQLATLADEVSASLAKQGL

[2] = molecular target: T2, aggregated tau (4R-tau) in PSP brain tissue homogenates (Homo sapiens, UniProt P10636); experiment: In vitro competition (Ki) assay versus [^3H]8, PSP brain tissue homogenate; assay type: binding; settings: radioligand [^3H]8 ∼1 nM
T2 construct: from tissue
T2 sequence (P10636 1-441 isoform P10636-8): as above

[3] = molecular target: T2, aggregated tau (4R-tau) in PSP brain tissue homogenates; experiment: In vitro competition (Ki) assay versus [^3H]7, PSP brain tissue homogenate; assay type: binding; settings: radioligand [^3H]7 ∼1 nM
[4] = molecular target: T1, aggregated tau (4R-tau) in CBD brain tissue homogenates; experiment: biochemical
[5] = molecular target: T3, aggregated tau (mixed 3R/4R-tau) in AD brain tissue homogenates (Homo sapiens, UniProt P10636); experiment: In vitro competition (Ki) assay versus [^3H]7, AD brain tissue homogenate; assay type: binding; settings: radioligand [^3H]7 ∼1 nM
Target sequence in this assay (P10636 623-695 limits assumed): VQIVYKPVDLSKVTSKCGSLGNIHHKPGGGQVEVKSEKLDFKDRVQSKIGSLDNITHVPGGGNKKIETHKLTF

[6] = molecular target: T1, aggregated tau (4R-tau) in CBD brain tissue homogenates; settings: read-out: Ki versus [^3H]7, CBD tissue; CBD brain tissue homogenate; radioligand [^3H]7 ∼1 nM
[7] = molecular target: T3, aggregated tau (mixed 3R/4R-tau) in AD brain tissue homogenates; experiment: In vitro competition (Ki) assay versus [^3H]8, AD brain tissue homogenate; assay type: binding; settings: radioligand [^3H]8 ∼1 nM
Target sequence in this assay (P10636 623-708 limits assumed): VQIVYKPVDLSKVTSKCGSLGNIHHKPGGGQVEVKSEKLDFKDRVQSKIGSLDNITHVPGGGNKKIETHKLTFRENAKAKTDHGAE

[8] = molecular target: T3, aggregated tau (mixed 3R/4R-tau) in AD brain tissue homogenates; design: method as in earlier work; settings: AD brain tissue homogenate; radioligand [^3H]3; read-out: Ki versus [^3H]3, AD tissue; cited from earlier work
Target sequence in this assay (P10636 623-695 limits assumed): as the sequence (P10636 623-695 limits assumed) above

[9] = molecular target: T2, aggregated tau (4R-tau) in PSP brain tissue homogenates; design: method as in earlier work; settings: PSP brain tissue homogenate; radioligand [^3H]3; read-out: Ki versus [^3H]3, PSP tissue; cited from earlier work
beta1 (h) = beta1 (h) (Homo sapiens, UniProt P08588); settings: reference compound; beta1 (h)
Chain of beta1 (h) (P08588 whole entry): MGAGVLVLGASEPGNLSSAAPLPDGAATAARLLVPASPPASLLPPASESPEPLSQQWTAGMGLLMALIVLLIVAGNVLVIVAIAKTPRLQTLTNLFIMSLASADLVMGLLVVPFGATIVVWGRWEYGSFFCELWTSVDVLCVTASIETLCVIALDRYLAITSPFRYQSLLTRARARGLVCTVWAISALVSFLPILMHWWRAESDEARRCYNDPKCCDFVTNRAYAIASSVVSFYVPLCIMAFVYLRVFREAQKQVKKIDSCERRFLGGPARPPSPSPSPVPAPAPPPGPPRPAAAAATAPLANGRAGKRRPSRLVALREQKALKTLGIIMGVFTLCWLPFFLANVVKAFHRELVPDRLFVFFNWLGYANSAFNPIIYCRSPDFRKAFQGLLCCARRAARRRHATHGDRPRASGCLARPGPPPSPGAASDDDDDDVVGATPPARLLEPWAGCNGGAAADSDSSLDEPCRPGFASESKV

Ca2+ channel (N) = assay type: binding; settings: read-out: Concurrent IC50, Specific binding
[10] = molecular target: norepinephrine transporter (h) (Homo sapiens, UniProt P23975); settings: reference compound
B2 (h) = B2 (h) (Homo sapiens, UniProt P30411); settings: reference compound; B2 (h)
Chain of B2 (h) (P30411 whole entry): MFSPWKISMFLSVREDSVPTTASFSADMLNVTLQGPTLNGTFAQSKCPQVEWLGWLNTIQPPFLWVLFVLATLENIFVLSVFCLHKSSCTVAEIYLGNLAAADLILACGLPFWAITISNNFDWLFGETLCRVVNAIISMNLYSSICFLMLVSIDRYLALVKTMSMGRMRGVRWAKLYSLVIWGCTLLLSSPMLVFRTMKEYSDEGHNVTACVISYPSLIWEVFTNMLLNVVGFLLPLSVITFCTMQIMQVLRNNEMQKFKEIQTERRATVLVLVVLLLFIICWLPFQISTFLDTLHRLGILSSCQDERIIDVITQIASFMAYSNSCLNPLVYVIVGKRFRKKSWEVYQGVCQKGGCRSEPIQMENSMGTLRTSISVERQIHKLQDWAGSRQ

BZDp (TSPO) (h) = BZDp (TSPO) (h) (Homo sapiens, UniProt P30536); experiment: Eurofins panel: BZDp (TSPO) (h) (antagonist radioligand); settings: reference compound; BZDp (TSPO) (h)
5-HT3 (h) = 5-HT3 (h) (Homo sapiens, UniProt P46098); settings: reference compound; 5-HT3 (h)
alpha2C (h) = alpha2C (h) (Homo sapiens, UniProt P18825); settings: reference compound; alpha2C (h)
Chain of alpha2C (h) (P18825 whole entry): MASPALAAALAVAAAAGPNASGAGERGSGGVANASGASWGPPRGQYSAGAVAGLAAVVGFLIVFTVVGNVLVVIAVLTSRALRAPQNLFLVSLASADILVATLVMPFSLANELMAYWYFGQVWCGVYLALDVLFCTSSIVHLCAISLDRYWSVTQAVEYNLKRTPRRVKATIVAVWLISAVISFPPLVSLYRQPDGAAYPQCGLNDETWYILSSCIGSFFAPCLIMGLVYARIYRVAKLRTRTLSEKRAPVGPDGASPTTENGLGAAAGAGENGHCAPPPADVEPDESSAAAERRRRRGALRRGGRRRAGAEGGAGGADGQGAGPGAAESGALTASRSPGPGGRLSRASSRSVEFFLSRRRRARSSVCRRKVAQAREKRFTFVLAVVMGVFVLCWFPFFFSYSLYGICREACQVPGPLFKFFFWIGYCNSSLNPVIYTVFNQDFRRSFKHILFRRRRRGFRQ

alpha2A (h) = alpha2A (h) (Homo sapiens, UniProt P08913); settings: reference compound; alpha2A (h)
5-HT7 (h) = 5-HT7 (h) (Homo sapiens, UniProt P34969); settings: reference compound; 5-HT7 (h)
5-HT4e (h) = 5-HT4e (h) (Homo sapiens, UniProt Q13639); experiment: Eurofins panel: 5-HT4e (h) (antagonist radioligand); settings: reference compound; 5-HT4e (h)
Chain of 5-HT4e (h) (Q13639 1-378 isoform Q13639-5): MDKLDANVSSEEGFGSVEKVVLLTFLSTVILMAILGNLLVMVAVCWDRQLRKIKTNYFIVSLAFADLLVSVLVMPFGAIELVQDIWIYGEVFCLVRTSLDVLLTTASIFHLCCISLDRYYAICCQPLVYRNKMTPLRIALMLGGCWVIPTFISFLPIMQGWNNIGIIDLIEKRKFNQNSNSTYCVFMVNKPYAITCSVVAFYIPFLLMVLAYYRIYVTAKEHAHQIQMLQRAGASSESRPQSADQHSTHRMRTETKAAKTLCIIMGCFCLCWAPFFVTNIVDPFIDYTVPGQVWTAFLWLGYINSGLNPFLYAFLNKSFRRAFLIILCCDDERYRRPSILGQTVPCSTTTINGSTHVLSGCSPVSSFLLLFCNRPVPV

p38alpha kinase (h) = p38alpha kinase (h) (Homo sapiens, UniProt Q16539); settings: reference compound
A3 (h) = A3 (h) (Homo sapiens, UniProt P0DMS8); settings: reference compound; A3 (h)
[11] = molecular target: T4, aggregated tau (3R-tau) in PiD brain tissue homogenates (Homo sapiens, UniProt P10636); experiment: In vitro competition (Ki) assay versus [^3H]75, PiD brain tissue homogenate; assay type: binding; settings: PiD brain tissue homogenate; radioligand [^3H]75; n = 3, mean ± SD
T4 construct: or only 3R-tau aggregates (PiD middle frontal gyrus); from tissue; host or cells: post-mortem human PiD brain, middle frontal gyrus homogenate
T4 sequence (P10636 1-410 isoform P10636-5): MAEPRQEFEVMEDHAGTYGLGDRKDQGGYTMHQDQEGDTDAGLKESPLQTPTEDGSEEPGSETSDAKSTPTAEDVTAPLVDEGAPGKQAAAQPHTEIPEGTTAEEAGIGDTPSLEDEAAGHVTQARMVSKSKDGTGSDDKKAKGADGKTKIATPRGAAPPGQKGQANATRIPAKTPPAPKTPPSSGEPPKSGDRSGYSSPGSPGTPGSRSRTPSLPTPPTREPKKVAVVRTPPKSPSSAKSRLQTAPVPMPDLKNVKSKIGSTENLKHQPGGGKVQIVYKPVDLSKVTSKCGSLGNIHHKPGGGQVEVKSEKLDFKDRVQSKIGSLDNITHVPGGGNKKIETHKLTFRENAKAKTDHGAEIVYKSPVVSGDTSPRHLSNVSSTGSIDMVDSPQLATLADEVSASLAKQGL

[12] = molecular target: T1, aggregated tau (4R-tau) in CBD brain tissue homogenates; experiment: In vitro competition (Ki) assay versus [^3H]75, CBD brain tissue homogenate; assay type: binding; design: from tissue; host or cells: post-mortem human CBD brain, middle frontal gyrus homogenate; settings: CBD brain tissue homogenate; radioligand [^3H]75; n = 3, mean ± SD
[13] = molecular target: T1, aggregated tau (4R-tau) in CBD brain tissue homogenates; settings: read-out: Ki versus [^3H]8, CBD tissue; CBD brain tissue homogenate; radioligand [^3H]8 ∼1 nM
[14] = molecular target: T2, aggregated tau (4R-tau) in PSP brain tissue homogenates; experiment: In vitro competition (Ki) assay versus [^3H]75, PSP brain tissue homogenate; assay type: binding; settings: PSP brain tissue homogenate; radioligand [^3H]75; n = 3, mean ± SD
[15] = molecular target: T3, aggregated tau (mixed 3R/4R-tau) in AD brain tissue homogenates; experiment: In vitro competition (Ki) assay versus [^3H]75, AD brain tissue homogenate; assay type: binding; settings: AD brain tissue homogenate; radioligand [^3H]75; n = 3, mean ± SD
Target sequence in this assay (P10636 623-695 limits assumed): as the sequence (P10636 623-695 limits assumed) above

5-HT2A (h) = molecular target: T5, 5-HT2A (h) (Homo sapiens, UniProt P28223); experiment: Eurofins panel: 5-HT2A (h) (agonist radioligand); assay type: binding; settings: reference compound; 5-HT2A (h)
T5 construct: purchased Eurofins (contract screening, CNS SafetyScreen panel)

5-HT2C (h) = molecular target: T6, 5-HT2C (h) (Homo sapiens, UniProt P28335); experiment: Eurofins panel: 5-HT2C (h) (agonist radioligand); assay type: binding; settings: reference compound, 5-HT2C (h)
T6 construct: purchased Eurofins (contract screening, CNS SafetyScreen panel)
T6 sequence (P28335 33-458): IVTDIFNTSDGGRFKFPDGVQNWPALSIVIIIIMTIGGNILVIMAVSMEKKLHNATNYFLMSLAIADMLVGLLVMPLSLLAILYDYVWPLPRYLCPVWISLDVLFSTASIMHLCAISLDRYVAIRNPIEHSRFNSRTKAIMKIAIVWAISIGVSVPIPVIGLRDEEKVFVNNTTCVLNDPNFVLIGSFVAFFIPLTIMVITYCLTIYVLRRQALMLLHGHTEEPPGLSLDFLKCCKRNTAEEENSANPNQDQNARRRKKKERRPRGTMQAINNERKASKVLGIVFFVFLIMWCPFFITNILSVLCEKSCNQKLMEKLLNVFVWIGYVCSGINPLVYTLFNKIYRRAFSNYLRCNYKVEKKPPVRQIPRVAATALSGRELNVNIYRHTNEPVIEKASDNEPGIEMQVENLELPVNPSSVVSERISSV

human 5-HT2B = molecular target: T7, human 5-HT2B (Homo sapiens, UniProt P41595); experiment: Eurofins CNS SafetyScreen panel: 5-HT2B (vs ± DOI); assay type: binding; settings: reference compound, 5-HT2B (h)
T7 construct: purchased Eurofins (contract screening, CNS SafetyScreen panel)
T7 sequence (P41595 whole entry): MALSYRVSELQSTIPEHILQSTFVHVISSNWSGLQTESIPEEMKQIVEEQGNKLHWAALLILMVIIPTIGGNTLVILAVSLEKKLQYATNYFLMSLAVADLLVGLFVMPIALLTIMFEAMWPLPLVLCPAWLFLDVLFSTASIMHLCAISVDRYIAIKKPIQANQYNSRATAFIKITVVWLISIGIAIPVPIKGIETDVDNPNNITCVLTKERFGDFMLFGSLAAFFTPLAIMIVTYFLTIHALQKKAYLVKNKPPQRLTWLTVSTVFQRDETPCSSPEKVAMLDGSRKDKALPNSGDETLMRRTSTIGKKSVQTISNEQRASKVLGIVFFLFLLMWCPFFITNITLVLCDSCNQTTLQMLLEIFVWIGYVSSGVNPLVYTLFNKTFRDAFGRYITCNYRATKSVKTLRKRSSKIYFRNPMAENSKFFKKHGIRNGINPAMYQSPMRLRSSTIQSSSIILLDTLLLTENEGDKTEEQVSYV

[16] = molecular target: T1, aggregated tau (4R-tau) in CBD brain tissue homogenates; experiment: In vitro competition (Ki) assay versus [^3H]3, CBD brain tissue homogenate; assay type: binding; design: from tissue; host or cells: post-mortem human CBD brain, middle frontal gyrus homogenate; settings: radioligand [^3H]3 ∼1 nM
[17] = molecular target: T3, aggregated tau (mixed 3R/4R-tau) in AD brain tissue homogenates; experiment: In vitro competition (Ki) assay versus [^3H]3, AD brain tissue homogenate; assay type: binding; settings: radioligand [^3H]3 ∼1 nM
Target sequence in this assay (P10636 623-695 limits assumed): as the sequence (P10636 623-695 limits assumed) above

[18] = molecular target: T2, aggregated tau (4R-tau) in PSP brain tissue homogenates; experiment: In vitro competition (Ki) assay versus [^3H]3, PSP brain tissue homogenate; assay type: binding; settings: radioligand [^3H]3 ∼1 nM
[19] = read-out: Concurrent IC50, Specific binding
[20] = read-out: Concurrent Ki, Specific binding

CN[C@@H]1C[C@H]2O[C@@](C)([C@@H]1OC)n1c3ccccc3c3c4c(c5c6ccccc6n2c5c31)C(=O)NC4 [staurosporine]
nH (JNK1 (h)): 0.9654

C[C@@H]1O[C@@H](O[C@H]2C[C@@H](O)[C@]3(CO)[C@H]4[C@H](O)C[C@]5(C)[C@@H](C6=CC(=O)OC6)CC[C@]5(O)[C@@H]4CC[C@]3(O)C2)[C@H](O)[C@H](O)[C@H]1O [ouabain]
IC50 (ATPase (Na+/K+)): 569 nM

CCCN(CCC)C1CCc2cccc(O)c2C1 (centres unmarked) [Compound 8-OH-DPAT]
nH, Specific binding (5-HT1A (h)): 1.814

c1ccc2sc(C3(N4CCCCC4)CCCCC3)cc2c1 [BTCP]
nH (dopamine transporter (h)): 0.9093

OC1CCN(c2ncc(-c3cc4ccc(F)cc4[nH]3)cn2)CC1 [Compound 7]
Ki [1]: 22 nM
Ki [2]: 15 nM
Ki [3]: 24 nM
Ki [4]: 14 nM
Ki [5]: 12 ± 7.3 nM
Ki [6]: 22 ± 12 nM
Ki [7]: 6.7 nM
Ki [8]: 18 nM
Ki [9]: 20 nM

CC(C)NCC(O)COc1ccc(CC(N)=O)cc1 (centres unmarked) [atenolol]
nH, Specific binding (beta1 (h)): 1.187

omega -conotoxin GVIA
IC50 (Ca2+ channel (N)): 0.0012 nM

CNCCCC1c2ccccc2C=Cc2ccccc21 [protriptyline]
nH, Specific binding [10]: 1.357

N=C(N)NCCC[C@@H](N)C(=O)N[C@@H](CCCNC(=N)N)C(=O)N1CCC[C@H]1C(=O)N1C[C@H](O)C[C@H]1C(=O)NCC(=O)N[C@@H](Cc1ccccc1)C(=O)N[C@@H](CO)C(=O)N[C@H](Cc1ccccc1)C(=O)N[C@@H](Cc1ccccc1)C(=O)N[C@@H](CCCNC(=N)N)C(=O)O [NPC 567]
nH, Specific binding (B2 (h)): 0.9653

CCC(C)N(C)C(=O)c1cc2ccccc2c(-c2ccccc2Cl)n1 (centres unmarked) [PK 11195]
nH, Specific binding (BZDp (TSPO) (h)): 1.786

CN1[C@@H]2CC[C@H]1C[C@@H](OC(=O)c1cc(Cl)cc(Cl)c1)C2 [MDL 72222]
nH, Specific binding (5-HT3 (h)): 1.115

COC(=O)[C@@H]1[C@H]2C[C@H]3c4[nH]c5ccccc5c4CCN3C[C@@H]2CC[C@@H]1O [yohimbine]
nH, Specific binding (alpha2C (h)): 1.207
nH, Specific binding (alpha2A (h)): 0.928

NCCc1c[nH]c2ccc(O)cc12 [serotonin]
nH, Specific binding (5-HT7 (h)): 1.62
nH, Specific binding (5-HT4e (h)): 0.8128

Oc1ccc(-c2nc(-c3ccncc3)c(-c3ccc(F)cc3)[nH]2)cc1 [SB202190]
nH, Enzymatic activity (p38alpha kinase (h)): 1.298

CNC(=O)[C@H]1O[C@@H](n2cnc3c(NCc4cccc(I)c4)ncnc32)[C@H](O)[C@@H]1O [IB-MECA]
nH, Specific binding (A3 (h)): 0.5951

Fc1ccc2cc(-c3cnc(N4CCOCC4)nc3)[nH]c2c1 [Compound 8]
Ki [1]: 19 nM
Ki [2]: 8.5 ± 1.2 nM
Ki [3]: 13 nM
Ki [11]: ~24 nM and 24 nM
Ki [12]: 16 nM
Ki [5]: 8.4 nM
Ki [6]: 11 nM
Ki [13]: 11 ± 1.3 nM
Ki [7]: 7.7 ± 0.6 nM
Ki [8]: 22 nM
Ki [9]: 18 nM
Ki [14]: ~15 nM and 15 nM
Ki [15]: ~15 nM and 15 nM

COc1cc(CC(C)N)c(OC)cc1I (racemic) [(±)DOI]
nH, Specific binding (5-HT2A (h)): 0.9157
IC50 (5-HT2C (h); [19]): 0.668 nM
Ki (5-HT2C (h); [20]): 0.602 nM
nH, Specific binding (5-HT2C (h)): 0.9843
IC50 (human 5-HT2B; [19]): 3.51 nM
Ki (human 5-HT2B; [20]): 1.75 nM
nH, Specific binding (human 5-HT2B): 0.8475

O[C@H]1CCN(c2ccc(-c3cc4ccc(F)cc4[nH]3)cn2)C1 [Compound 9, reference compound]
Ki [16]: 40 nM
Ki [2]: 11 nM
Ki [3]: 8.9 nM
Ki [4]: 15 nM
Ki [17]: 33 nM
Ki [5]: 11 nM
Ki [18]: 37 nM
Ki [7]: 10 nM
